In ChEMBL document CHEMBL5375949, “The evolution of small molecule enzyme activators” (RSC Med Chem, 2023):

Experiments:
SUM-159-PT = experiment: cells; conditions: Homo sapiens, 72 h
Description: Antiproliferative activity against human SUM159 cells assessed as inhibition of cell growth incubated for 72 hrs by Hoechst stain-based assay

MDA-MB-231 [1] = experiment: cells; conditions: Homo sapiens, MDA-MB-231, 72 h
Description: Antiproliferative activity against human MDA-MB-231 cells assessed as inhibition of cell growth incubated for 72 hrs by Hoechst stain-based assay

[2] = target: Angiotensin-converting enzyme 2 (Homo sapiens, UniProt Q9BYF1); experiment: Activation of recombinant human ACE2 using McaAPK(Dnp)-OH as substrate preincubated for 15 mins followed by substrate addition spectra max Gemini M5 fluorescence plate reader analysis
N-glycosylase/DNA lyase = N-glycosylase/DNA lyase (Homo sapiens, UniProt O15527); experiment: Activation of OGG1 (unknown origin) by fluorescence-based assay
MDA-MB-231 [3] = experiment: Cytotoxicity against human MDA-MB-231 cells assessed as inhibition of cell growth incubated for 24 hrs by MTS assay; format: functional, cell-based; conditions: MDA-MB-231, 24 h
BT-474 = experiment: Cytotoxicity against human BT-474 cells assessed as inhibition of cell growth incubated for 24 hrs by MTS assay; format: functional, cell-based; conditions: BT-474, 24 h
[4] = target: Insulin-degrading enzyme (Homo sapiens) (UniProt P14735); experiment: Activation of IDE (unknown origin) using FRET1 as substrate at 200 uM by SpectraMax M5 multilabel plate reader analysis relative to control; conditions: filed as activator
[5] = target: Insulin-degrading enzyme (Homo sapiens) (UniProt P14735); experiment: Activation of IDE (unknown origin) using SP1 as substrate in presence of ATP by SpectraMax M5 multilabel plate reader analysis relative to control; conditions: filed as activator
[6] = Activation of sGC (unknown origin); design: species or system Homo sapiens
[7] = Protection against rotenone-induced stress in human Induced pluripotent stem cell-derived neuron cells relative to control; format: functional
[8] = target: 3',5'-cyclic-AMP phosphodiesterase 4D (Homo sapiens, UniProt Q08499); experiment: Activation of PDE4D5 (unknown origin)
[9] = target: T1, Carnitine O-palmitoyltransferase 1, liver isoform (Homo sapiens) (UniProt P50416); experiment: Activation of CPT-1 in human HeLa cells assessed as fold increase at 100 uM incubated for 10 mins relative to control; format: cell-based; conditions: filed as activator
T1 sequence (whole entry): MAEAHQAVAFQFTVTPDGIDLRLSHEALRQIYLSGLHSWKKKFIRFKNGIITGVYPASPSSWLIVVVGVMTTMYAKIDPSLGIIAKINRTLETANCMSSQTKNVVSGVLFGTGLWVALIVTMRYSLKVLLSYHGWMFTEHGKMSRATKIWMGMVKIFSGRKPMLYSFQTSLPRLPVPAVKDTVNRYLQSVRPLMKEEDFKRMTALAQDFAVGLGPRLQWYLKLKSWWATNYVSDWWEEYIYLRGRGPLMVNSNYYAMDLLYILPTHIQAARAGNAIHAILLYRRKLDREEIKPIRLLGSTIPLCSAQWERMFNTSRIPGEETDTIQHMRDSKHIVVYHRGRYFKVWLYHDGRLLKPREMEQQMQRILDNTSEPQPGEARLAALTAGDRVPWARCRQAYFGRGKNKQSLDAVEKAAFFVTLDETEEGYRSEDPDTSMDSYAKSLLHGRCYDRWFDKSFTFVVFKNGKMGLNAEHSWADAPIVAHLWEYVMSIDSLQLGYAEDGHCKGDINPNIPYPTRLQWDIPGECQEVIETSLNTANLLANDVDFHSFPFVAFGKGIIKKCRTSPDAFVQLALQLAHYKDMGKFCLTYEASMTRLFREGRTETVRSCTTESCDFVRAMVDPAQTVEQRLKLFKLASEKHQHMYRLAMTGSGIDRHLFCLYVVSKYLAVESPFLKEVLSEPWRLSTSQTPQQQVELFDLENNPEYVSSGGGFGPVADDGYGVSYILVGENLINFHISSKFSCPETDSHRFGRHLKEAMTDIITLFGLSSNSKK

[10] = target: T1, Carnitine O-palmitoyltransferase 1, liver isoform (Homo sapiens); experiment: Activation of CPT-1 in human HeLa cells assessed as reduction in free fatty acid at 100 uM incubated for 10 mins relative to control; format: cell-based; design: scale not given: the % may be the effect or the level left; conditions: filed as activator
Mus musculus [11] = experiment: Anti-obesity activity against diet-induced obese mouse expressing CPT-1 H327E mutant assessed as reduction in body weight at 400 mg/kg, IG administered for 12 week; format: functional; conditions: time 12 weeks
Mus musculus [12] = experiment: Anti-obesity activity against diet-induced obese mouse expressing CPT-1 H327E mutant assessed as reduction in body fat percentage at 400 mg/kg, IG administered for 12 week relative to control; format: functional; design: scale not given: the % may be the effect or the level left; conditions: time 12 weeks
[13] = target: Indoleamine 2,3-dioxygenase 1 (Homo sapiens, UniProt P14902); experiment: Positive allosteric modulation of recombinant human IDOL transfected in mouse P1.HTR cells assessed as increase in Kyn production incubated for 24 hrs; format: cell-based
[14] = target: Indoleamine 2,3-dioxygenase 1 (Mus musculus, UniProt P28776); experiment: Positive allosteric modulation of recombinant mouse IDOL transfected in mouse P1.HTR cells assessed as increase in Kyn production incubated for 24 hrs; format: cell-based
[15] = target: T2, Glucose-6-phosphate 1-dehydrogenase (Homo sapiens, UniProt P11413); experiment: Activation of G6PD (unknown origin) expressed in Escherichia coli C43(DE3) cells using G6P as substrate in presence of NADP+ by resazurin dye-based assay
[16] = target: T2, Glucose-6-phosphate 1-dehydrogenase; experiment: Activation of G6PD dimerization in lymphocytes isolated from G6PD-deficient patient carrying canton variant expressed in Escherichia coli C43(DE3) cells using G6P as substrate assessed as increase in lysate activity in presence of NADP+ by resazurin dye based fluorescence assay relative to control; format: subcellular; conditions: Lymphocyte, filed as activator
[17] = Activation of recombinant human procaspase-3 using Ac-DEVD-pNA as substrate preincubated for 12 hrs followed by substrate addition by absorbance based assay
NCI-H3255 = experiment: Cytotoxicity against TKI-sensitive LUAD immortalized human NCI-H3255 cells assessed as inhibition of cell growth incubated for 48 hrs by Beckman Coulter cell counter analysis; format: functional, cell-based; conditions: NCI-H3255, 48 h
HCC827 = experiment: Cytotoxicity against TKI-sensitive LUAD immortalized human HCC827 cells assessed as inhibition of cell growth incubated for 48 hrs by Beckman Coulter cell counter analysis; format: functional, cell-based; conditions: HCC827, 48 h
NCI-H1975 [18] = experiment: Cytotoxicity against d TKI-resistant LUAD human NCI-H1975 cells assessed as inhibition of cell growth incubated for 48 hrs by Beckman Coulter cell counter analysis; format: functional, cell-based; conditions: NCI-H1975, 48 h
NCI-H1650 = experiment: Cytotoxicity against d TKI-resistant LUAD human NCI-H1650 cells assessed as inhibition of cell growth incubated for 48 hrs by Beckman Coulter cell counter analysis; format: functional, cell-based; conditions: NCI-H1650, 48 h
NCI-H1975 [19] = experiment: Antitumor activity against human NCI-H1975 cells xenografted in mouse model assessed as fold decrease in tumor growth; format: functional
Homo sapiens = organism: Homo sapiens; experiment: Activation of recombinant sGC (unknown origin) assessed as fold increase
A549 = experiment: Anti-oxidative activity in human A549 cells assessed as reduction in cell injury relative to control; format: functional; design: scale not given: the % may be the effect or the level left
[20] = Activation of procaspase-3 (unknown origin); design: species or system Homo sapiens
[21] = target: Insulin-degrading enzyme (Homo sapiens) (UniProt P14735); experiment: Activation of IDE (unknown origin) using FRET1 as substrate at 6.25 uM by SpectraMax M5 multilabel plate reader analysis relative to control; conditions: filed as activator

Sequence of Insulin-degrading enzyme (Homo sapiens) (P14735 whole entry): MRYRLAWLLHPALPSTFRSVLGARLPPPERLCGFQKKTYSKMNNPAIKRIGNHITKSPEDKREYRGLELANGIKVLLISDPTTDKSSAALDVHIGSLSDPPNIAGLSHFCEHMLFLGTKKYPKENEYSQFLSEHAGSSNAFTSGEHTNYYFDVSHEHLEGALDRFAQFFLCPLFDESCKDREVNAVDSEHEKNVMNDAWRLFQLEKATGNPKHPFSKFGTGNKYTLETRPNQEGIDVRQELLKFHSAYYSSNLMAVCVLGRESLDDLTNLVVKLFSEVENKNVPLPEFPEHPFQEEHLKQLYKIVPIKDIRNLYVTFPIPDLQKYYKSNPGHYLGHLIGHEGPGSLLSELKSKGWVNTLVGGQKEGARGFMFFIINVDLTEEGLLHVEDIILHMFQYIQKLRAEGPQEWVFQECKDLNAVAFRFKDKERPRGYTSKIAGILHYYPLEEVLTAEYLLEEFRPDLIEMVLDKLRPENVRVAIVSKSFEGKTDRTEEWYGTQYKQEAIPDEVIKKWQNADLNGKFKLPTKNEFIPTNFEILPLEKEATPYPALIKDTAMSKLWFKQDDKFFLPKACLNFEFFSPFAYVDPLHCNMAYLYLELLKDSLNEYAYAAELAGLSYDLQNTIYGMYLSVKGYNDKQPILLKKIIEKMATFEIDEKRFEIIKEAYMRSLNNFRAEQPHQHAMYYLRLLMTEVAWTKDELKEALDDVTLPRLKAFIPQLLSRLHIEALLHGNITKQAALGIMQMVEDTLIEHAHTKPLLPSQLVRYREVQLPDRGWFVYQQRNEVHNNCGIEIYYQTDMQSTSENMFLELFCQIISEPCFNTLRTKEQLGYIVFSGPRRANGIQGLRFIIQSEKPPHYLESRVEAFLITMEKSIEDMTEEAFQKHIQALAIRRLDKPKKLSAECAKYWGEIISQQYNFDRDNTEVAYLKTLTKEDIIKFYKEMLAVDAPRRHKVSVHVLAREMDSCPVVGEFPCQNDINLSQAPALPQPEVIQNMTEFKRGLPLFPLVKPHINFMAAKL
Sequence of N-glycosylase/DNA lyase (O15527 whole entry): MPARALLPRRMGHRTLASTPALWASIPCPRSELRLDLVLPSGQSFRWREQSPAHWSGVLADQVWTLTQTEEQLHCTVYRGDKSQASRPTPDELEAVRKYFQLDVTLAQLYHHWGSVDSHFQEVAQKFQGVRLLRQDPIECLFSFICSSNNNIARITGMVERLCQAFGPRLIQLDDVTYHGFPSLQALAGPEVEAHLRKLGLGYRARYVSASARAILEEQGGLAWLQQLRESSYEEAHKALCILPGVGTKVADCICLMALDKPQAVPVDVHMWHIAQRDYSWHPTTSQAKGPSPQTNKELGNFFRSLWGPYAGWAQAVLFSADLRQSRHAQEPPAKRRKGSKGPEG
Sequence of Angiotensin-converting enzyme 2 (Q9BYF1 whole entry): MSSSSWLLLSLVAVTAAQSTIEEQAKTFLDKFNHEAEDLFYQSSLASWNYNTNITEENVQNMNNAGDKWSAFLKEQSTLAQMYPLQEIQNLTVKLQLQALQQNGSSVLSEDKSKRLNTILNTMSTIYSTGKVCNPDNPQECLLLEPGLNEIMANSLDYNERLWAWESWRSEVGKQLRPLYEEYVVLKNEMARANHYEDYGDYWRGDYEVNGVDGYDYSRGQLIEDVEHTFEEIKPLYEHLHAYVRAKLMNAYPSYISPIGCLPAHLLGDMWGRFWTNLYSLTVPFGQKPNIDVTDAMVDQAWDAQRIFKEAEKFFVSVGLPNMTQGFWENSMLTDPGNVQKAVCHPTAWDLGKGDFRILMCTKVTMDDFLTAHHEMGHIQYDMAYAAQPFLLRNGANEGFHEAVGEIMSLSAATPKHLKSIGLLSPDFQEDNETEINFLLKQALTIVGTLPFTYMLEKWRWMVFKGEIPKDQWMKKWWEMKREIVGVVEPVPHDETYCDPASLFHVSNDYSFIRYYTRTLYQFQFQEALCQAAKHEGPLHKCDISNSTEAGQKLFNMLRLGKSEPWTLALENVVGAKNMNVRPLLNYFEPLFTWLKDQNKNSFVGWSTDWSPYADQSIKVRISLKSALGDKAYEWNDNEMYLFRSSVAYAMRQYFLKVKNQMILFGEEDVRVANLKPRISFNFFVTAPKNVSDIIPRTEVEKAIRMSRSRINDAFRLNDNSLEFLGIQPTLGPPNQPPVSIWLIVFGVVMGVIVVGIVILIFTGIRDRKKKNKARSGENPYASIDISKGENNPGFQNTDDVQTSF
T2 sequence (P11413 whole entry): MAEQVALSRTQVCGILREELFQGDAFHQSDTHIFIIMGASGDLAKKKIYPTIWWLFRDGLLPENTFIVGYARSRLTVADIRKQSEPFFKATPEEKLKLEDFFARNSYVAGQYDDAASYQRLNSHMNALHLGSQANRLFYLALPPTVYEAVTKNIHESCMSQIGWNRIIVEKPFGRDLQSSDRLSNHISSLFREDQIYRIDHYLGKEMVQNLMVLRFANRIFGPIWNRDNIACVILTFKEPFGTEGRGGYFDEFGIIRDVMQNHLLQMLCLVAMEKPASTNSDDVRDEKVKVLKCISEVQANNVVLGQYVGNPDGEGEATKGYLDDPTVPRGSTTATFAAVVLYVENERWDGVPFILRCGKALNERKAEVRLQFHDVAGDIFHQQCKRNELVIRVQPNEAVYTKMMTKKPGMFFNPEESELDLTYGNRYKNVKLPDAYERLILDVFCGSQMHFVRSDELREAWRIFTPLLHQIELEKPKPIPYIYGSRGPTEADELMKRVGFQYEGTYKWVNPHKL
Sequence of Indoleamine 2,3-dioxygenase 1 (Mus musculus, UniProt P28776) (P28776 whole entry): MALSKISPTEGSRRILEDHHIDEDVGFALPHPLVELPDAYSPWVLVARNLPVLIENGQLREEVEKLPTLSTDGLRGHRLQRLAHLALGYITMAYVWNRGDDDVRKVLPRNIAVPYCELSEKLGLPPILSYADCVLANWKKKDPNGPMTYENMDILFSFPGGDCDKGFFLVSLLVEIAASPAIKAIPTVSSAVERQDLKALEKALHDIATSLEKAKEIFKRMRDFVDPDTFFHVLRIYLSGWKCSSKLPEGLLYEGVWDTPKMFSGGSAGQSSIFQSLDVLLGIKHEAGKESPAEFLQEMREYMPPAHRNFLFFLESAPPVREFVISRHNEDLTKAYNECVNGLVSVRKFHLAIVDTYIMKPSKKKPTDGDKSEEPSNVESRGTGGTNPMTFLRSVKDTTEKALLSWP
Sequence of Indoleamine 2,3-dioxygenase 1 (Homo sapiens, UniProt P14902) (P14902 whole entry): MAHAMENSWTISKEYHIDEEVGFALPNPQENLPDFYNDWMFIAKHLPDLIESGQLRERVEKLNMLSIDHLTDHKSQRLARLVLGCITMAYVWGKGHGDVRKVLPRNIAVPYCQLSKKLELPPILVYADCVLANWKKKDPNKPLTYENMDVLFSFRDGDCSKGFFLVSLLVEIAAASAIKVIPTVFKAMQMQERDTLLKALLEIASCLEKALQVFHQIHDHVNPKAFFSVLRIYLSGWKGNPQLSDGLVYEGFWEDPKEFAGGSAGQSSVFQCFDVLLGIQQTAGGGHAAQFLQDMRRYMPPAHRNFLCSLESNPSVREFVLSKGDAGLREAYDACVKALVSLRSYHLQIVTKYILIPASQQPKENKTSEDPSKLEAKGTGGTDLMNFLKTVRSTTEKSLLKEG
Sequence of 3',5'-cyclic-AMP phosphodiesterase 4D (Q08499 whole entry, canonical isoform): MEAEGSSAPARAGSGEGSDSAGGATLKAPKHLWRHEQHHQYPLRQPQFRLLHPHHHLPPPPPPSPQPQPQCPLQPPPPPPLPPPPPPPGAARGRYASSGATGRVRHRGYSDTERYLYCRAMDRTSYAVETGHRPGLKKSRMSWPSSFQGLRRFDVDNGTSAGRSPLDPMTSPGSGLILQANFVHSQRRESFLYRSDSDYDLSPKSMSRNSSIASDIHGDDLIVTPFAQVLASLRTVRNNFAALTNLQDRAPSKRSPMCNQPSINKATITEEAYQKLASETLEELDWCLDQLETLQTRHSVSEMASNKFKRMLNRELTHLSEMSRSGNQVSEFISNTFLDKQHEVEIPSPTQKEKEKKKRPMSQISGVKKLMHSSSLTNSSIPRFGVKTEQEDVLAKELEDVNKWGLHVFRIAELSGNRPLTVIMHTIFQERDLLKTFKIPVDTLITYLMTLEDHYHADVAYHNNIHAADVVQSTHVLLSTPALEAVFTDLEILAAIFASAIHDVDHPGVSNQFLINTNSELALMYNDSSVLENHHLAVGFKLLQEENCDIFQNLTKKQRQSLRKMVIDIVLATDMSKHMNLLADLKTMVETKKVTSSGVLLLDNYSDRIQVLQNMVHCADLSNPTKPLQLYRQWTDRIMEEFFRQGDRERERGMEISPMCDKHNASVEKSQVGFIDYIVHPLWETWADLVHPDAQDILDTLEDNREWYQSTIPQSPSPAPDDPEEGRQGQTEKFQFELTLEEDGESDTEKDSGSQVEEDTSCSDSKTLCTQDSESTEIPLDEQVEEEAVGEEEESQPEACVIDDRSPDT

N#Cc1cccc(CN2CCc3ncn(Cc4ccc(Cl)cc4)c(=O)c3C2)c1
IC50 (SUM-159-PT): 0.012 µM
IC50 (MDA-MB-231 [1]): 0.003 µM

N=C(N)c1ccc(/N=N/Nc2ccc(C(=N)N)cc2)cc1 [DIMINAZENE]
EC50 [2]: 8.04 µM

Cc1cc(N[C@@H](C)C(=O)Nc2ccccc2)nc(Nc2ccccc2)n1
EC50 (N-glycosylase/DNA lyase): 4.1 µM

CCCCCCCCc1ccc(CCC(N)(CO)CO)cc1 [FINGOLIMOD]
IC50 (MDA-MB-231 [3]): 2.9 µM
IC50 (BT-474): 8.5 µM

O=C1CC(c2ccc(Cl)cc2)CC(=O)C1/C=N/OCc1nnsc1Cl (stereo unspecified)
Activity [4]: 500%
Activity [5]: 1000%

O=C(Nc1ccc(S(=O)(=O)N2CCOCC2)cc1)c1cc(Cl)ccc1NS(=O)(=O)c1ccc(Cl)s1
EC50 [6]: 0.5 µM

Fc1ccccc1Cc1nc(-c2nc(C(F)(F)F)n[nH]2)cn2ccnc12 [ZAGOCIGUAT]
EC50 [6]: 0.066 µM

O=C(c1cc(O)c(O)c(O)c1)c1ccc(O)c(O)c1O [EXIFONE]
Activity [7]: 80%

Cc1cnc(N2CCN3CCCC3C2)nc1Oc1ccc(-n2ccnc2)cc1 (stereo unspecified)
EC50 (N-glycosylase/DNA lyase): 4.6 µM

CCc1nc(-c2ccc(Cl)c(F)c2)nn1CC(=O)NCc1cc(Cl)cc(Cl)c1
EC50 [8]: 1.2 µM

O=C(O)[C@H]1O[C@@H](Oc2cc3oc(-c4ccccc4)cc(=O)c3c(O)c2O)[C@H](O)[C@@H](O)[C@@H]1O [BAICALIN]
fold change (FC) [9]: 7
Activity [10]: 50%
Activity (Mus musculus [11]): -12.5 g
Activity (Mus musculus [12]): -0.085%

CC(=O)NCCc1c[nH]c2ccc(O)cc12 [ACETYLSEROTONIN]
EC50 [13]: 20.9 µM
EC50 [14]: 19.6 µM

c1ccc2c(CCNCCSSCCNCCc3c[nH]c4ccccc34)c[nH]c2c1
EC50 [15]: 0.8 µM
Activity [16]: 78%

c1ccc2c(NC3CCCCC3)nc(C3CC3)nc2c1
EC50 (N-glycosylase/DNA lyase): 0.78 µM

O=C(CN1CCN(Cc2nc(-c3ccc(COc4ccc(F)cc4)cc3)no2)CC1)N/N=C/c1ccc(OCc2csc(Cc3ccc4c(c3)OCO4)n2)cc1O
EC50 [17]: 0.95 µM

O=C1OC2(c3ccc(O)cc3Oc3cc(O)ccc32)c2ccccc21 [FLUORESCEIN]
EC50 [2]: 19.5 µM

O=S(=O)(N[C@@H]1CCCC(N2c3ccccc3Oc3ccccc32)[C@H]1O)c1ccc(OC(F)(F)F)cc1 (stereo partly specified)
IC50 (NCI-H3255): 12.4 µM
IC50 (HCC827): 14.3 µM
IC50 (NCI-H1975 [18]): 10.6 µM
IC50 (NCI-H1650): 10.6 µM
fold change (FC) (NCI-H1975 [19]): 2

COC(=O)N(C)c1c(N)nc(-c2nn(Cc3ccccc3F)c3ncccc23)nc1N
fold change (FC) (Homo sapiens): < 73

OC(Cn1ccnc1)(c1ccc(Cl)cc1Cl)C1CCCCC1 (stereo unspecified)
EC50 (N-glycosylase/DNA lyase): 5 µM
Activity (A549): 650%

O=C(Nc1cccc(-c2cn3ccccc3n2)c1)c1cc2cccc(O)c2oc1=O
EC50 [20]: 1.3 µM

CNc1nnc(C)c2c1cc(-c1ccc(F)cc1)n2C
EC50 (N-glycosylase/DNA lyase): 5.1 µM
Activity (A549): 200%

O=C(Nc1cccc(Cl)c1)N1CCC(c2cc(-c3ccco3)[nH]n2)CC1
Activity [21]: 60%
